Source: publication PMC4770311, “Discovery and Characterization of GSK2801, a Selective Chemical Probe for the Bromodomains BAZ2A and BAZ2B” (Journal of Medicinal Chemistry, 2015)

Columns and labels:
[1] = test system: BRD4; parameters: method as in PMID 21804994, PMID 22136404; conditions: reported activity; read-out: TR-FRET assay: BRD4; cited from earlier work
[2] = molecular target: T1, BAZ2A (Homo sapiens, UniProt Q9UIF9); test: AlphaScreen assay BAZ2A; format: binding; conditions: average of three replicates ± SEM
T1 construct: Recombinant BAZ2A and BAZ2B bromodomains were expressed in; made in house; host or cells: E. coli
T1 sequence (Q9UIF9 1793-1897 limits assumed): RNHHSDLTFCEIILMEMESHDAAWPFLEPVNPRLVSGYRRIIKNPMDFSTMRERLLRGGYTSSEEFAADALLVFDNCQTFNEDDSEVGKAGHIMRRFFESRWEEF
Description: AlphaScreen: AlphaScreen was performed as described previously 10, with minor modifications from the manufacturers protocol (PerkinElmer, USA). Briefly, all reagents were diluted in the recommended buffer (50 mM HEPES, 100 mM NaCl, 0.1% BSA; pH = 7.4) supplemented with 0.05% CHAPS and allowed to equilibrate to room temperature prior to […]
Plates were sealed and incubated at room temperature for 30 min. 4 μL of streptavidin-coated donor beads (10ug/mL final) and 4 μL of nickel chelate acceptor beads (10 μg/ml final) were then added under low light conditions. Plates were foil sealed to protect from light, incubated at room temperature for 60 min and read on a PHERAstar FS plate reader (BMG Labtech, Germany) using an AlphaScreen 680 excitation/570 emission filter set.
Fragments were dissolved in ethylene glycol to overcome sensitivity of the bromodomain assay to DMSO and allow compounds to be screened at mM concentrations. IC50 […]
measurements were taken over a 12 point 1:2 serial dilution of compound. IC50s were calculated in GraphPad Prism 5 (GraphPad Software, USA). […]

[3] = test system: BRD2; parameters: method as in PMID 21804994, PMID 22136404; conditions: reported activity; read-out: TR-FRET assay: BRD2; cited from earlier work

In the case of `CC(=O)c1cc(-c2ccccn2)c2ccccn12` [Compound 1], the IC50 [1] is given as 2000 nM, the IC50 [2] is given as 1500 ± 60 nM and the IC50 [3] is given as 2000 nM.
